Measured values published in US6740677B2, “Methods of treating benzodiazepine site (BZD-S) associated syndromes using 2′ hydroxyflavonoids” (priority 2002, dated 2004).

Columns and labels:
[1] = system: mice; assay: Hole-board test; assay type: in vivo, Male ICR mice; design: Time spent head-dipping: unit not given here
[2] = system: mice; assay: Elevated plus-maze test; assay type: in vivo, Male ICR mice
[3] = system: benzodiazepine site; conditions: 10^-4 M GABA, rat cerebral cortex membranes; cited from earlier work
[4] = system: benzodiazepine site on GABAA receptor; assay: GABA shift experiment, [3H]-Ro15-1788 competition with/without 10 μM GABA; assay type: binding, rat
[5] = system: benzodiazepine site; conditions: 10^-5 M muscimol, rat cerebellar membranes; cited from earlier work
[6] = biological target: BZD-S; assay: Radio-receptor binding assay, [3H]flunitrazepam, forebrain crude synaptosomal fraction (Example 3); design: species or system Sprague-Dawley rats; conditions: 1 nM [3H]flunitrazepam, rat forebrain; read-out: Inhibition of 3H-Flunitrazepam Ki
[7] = system: mice; assay: Horizontal wire test; assay type: in vivo, Male ICR mice
[8] = biological target: benzodiazepine binding site; assay: Inhibition of [3H]-flunitrazepam by 2′ flavonoid derivatives (Example 7)
[9] = system: benzodiazepine site (BZD-S) of the GABAA receptor; assay: Radioligand receptor binding, displacement of [3H]-flunitrazepam (Example 1)
[10] = biological target: benzodiazepine site (BZD-S) of the GABAA receptor
[11] = 1 mg/kg oral, time cell empty (1 hour), 5-min test
[12] = 5 mg/kg oral, time cell empty (1 hour), 5-min test
[13] = 1 mg/kg oral, time cell empty, 5-min test
[14] = 5 mg/kg oral, time cell empty, 5-min test

For `CN1C(=O)CN=C(c2ccccc2)c2cc(Cl)ccc21` [Diazepam, reference compound], the “Number of head dips” value [1, 11] was 19.12 ± 2.92, the Number of rearings [1, 11] was 25.13 ± 2.85 and the Time spent head-dipping [1, 11] was 22.75 ± 2.59. For the same compound, the “Number of head dips” value [1, 12] was 17.25 ± 1.89, the Number of rearings [1, 12] was 32.16 ± 3.15 and the Time spent head-dipping [1, 12] was 19.50 ± 2.33. The “sedative effects (decrease in head-dips, time head-dipping, rearings)” value ([1]; at the dosage regimen) was “lack of sedative effects”, the “% of entries into open arms” value [2, 13] was 26.48 ± 2.83 % and the “% of time spent in open arms” value [2, 13] was 28.71 ± 2.27 %. The “% of entries into open arms” value [2, 14] was 29.85 ± 1.29 %, the “% of time spent in open arms” value [2, 14] was 32.24 ± 1.56 % and the “time spent in open arms and entries made into open arms vs control” value ([2]; 1.0 and 5.0 mg/kg) was “dose dependent increase”. The “GABA ratio (IC50 ratio without GABA/with GABA), column A” value [3] was 2.9, the “GABA ratio (IC50 ratio without GABA/with GABA), column C” value ([4]; 10^-5 M GABA, rat cerebral cortex membranes) was 2.0 and the “GABA ratio (IC50 ratio without GABA/with GABA), column B” value [5] was 2.3. For the same compound, the Ki [6] was 9.5 nM and the “ability to grasp the wire compared to control” value ([7]; 5.0 mg/kg) was “significant impairment”.
`COc1ccc2oc(-c3ccccc3N)cc(=O)c2c1` [2′-amino, 6-methoxyflavone] showed an IC50 [8] of 2000 nM.
With `COc1c(O)c(OC)c2oc(-c3ccccc3O)cc(=O)c2c1O` [Compound 1, 5,7,2′-trihydroxy-6,8-dimethoxyflavone] the “Number of head dips” value ([1]; 1 mg/kg oral, 20 min) was 13.56 ± 1.81, the Number of rearings ([1]; 1 mg/kg oral, 20 min) was 24.19 ± 3.53 and the Time spent head-dipping ([1]; 1 mg/kg oral, 20 min) was 15.38 ± 1.59. For the same compound, the “Number of head dips” value ([1]; 1 mg/kg oral, 60 min) was 15.75 ± 2.53, the Number of rearings ([1]; 1 mg/kg oral, 60 min) was 23.94 ± 2.34 and the Time spent head-dipping ([1]; 1 mg/kg oral, 60 min) was 16.75 ± 3.78. For the same compound, the “Number of head dips” value ([1]; 2 mg/kg oral, 20 min) was 13.13 ± 1.96, the Number of rearings ([1]; 2 mg/kg oral, 20 min) was 22.06 ± 3.17 and the Time spent head-dipping ([1]; 2 mg/kg oral, 20 min) was 14.56 ± 2.04. The “Number of head dips” value ([1]; 2 mg/kg oral, 60 min) was 14.50 ± 2.73, the Number of rearings ([1]; 2 mg/kg oral, 60 min) was 22.13 ± 2.46 and the Time spent head-dipping ([1]; 2 mg/kg oral, 60 min) was 15.13 ± 2.20. For the same compound, the “number of head-dips, time spent head-dipping and number of rearings” value ([1]; 4 mg/kg acute, twenty minutes after dosage) was “significant increase”, the “Number of head dips” value ([1]; 4 mg/kg oral, 20 min) was 20.25 ± 1.42 and the Number of rearings ([1]; 4 mg/kg oral, 20 min) was 29.54 ± 2.09. For the same compound, the Time spent head-dipping ([1]; 4 mg/kg oral, 20 min) was 23.35 ± 1.28, the “Number of head dips” value ([1]; 4 mg/kg oral, 60 min) was 16.95 ± 1.33 and the Number of rearings ([1]; 4 mg/kg oral, 60 min) was 27.56 ± 2.79. For the same compound, the Time spent head-dipping ([1]; 4 mg/kg oral, 60 min) was 17.56 ± 1.20, the “Number of head dips” value ([1]; 8 mg/kg oral, 20 min) was 18.46 ± 3.65 and the Number of rearings ([1]; 8 mg/kg oral, 20 min) was 25.26 ± 2.74. For the same compound, the Time spent head-dipping ([1]; 8 mg/kg oral, 20 min) was 19.55 ± 4.23, the “Number of head dips” value ([1]; 8 mg/kg oral, 60 min) was 15.72 ± 1.86 and the Number of rearings ([1]; 8 mg/kg oral, 60 min) was 23.75 ± 3.18. The Time spent head-dipping ([1]; 8 mg/kg oral, 60 min) was 15.06 ± 1.98, the “sedative effects (decrease in head-dips, time head-dipping, rearings)” value ([1]; mouse, in vivo) was “lack of sedative effects” and the “% of entries into open arms” value ([2]; 1 mg/kg oral, 20 min) was 18.39 ± 3.14%. For the same compound, the “% of time spent in open arms” value ([2]; 1 mg/kg oral, 20 min) was 14.28 ± 2.36%, the “% of entries into open arms” value ([2]; 1 mg/kg oral, 60 min) was 18.51 ± 3.34% and the “% of time spent in open arms” value ([2]; 1 mg/kg oral, 60 min) was 15.80 ± 3.29%. For the same compound, the “% of entries into open arms” value ([2]; 2 mg/kg oral, 20 min) was 18.30 ± 2.78%, the “% of time spent in open arms” value ([2]; 2 mg/kg oral, 20 min) was 15.74 ± 3.00% and the “% of entries into open arms” value ([2]; 2 mg/kg oral, 60 min) was 16.91 ± 2.49%. The “% of time spent in open arms” value ([2]; 2 mg/kg oral, 60 min) was 16.84 ± 1.99%, the “anxiolysis compared to either dosage of diazepam” value ([2]; 4.0 mg/kg) was “more anxiolysis” and the “% of entries into open arms” value ([2]; 4 mg/kg oral, 20 min) was 32.28 ± 2.91 %. The “% of time spent in open arms” value ([2]; 4 mg/kg oral, 20 min) was 33.55 ± 2.09 %, the “% of entries into open arms” value ([2]; 4 mg/kg oral, 60 min) was 19.90 ± 1.63% and the “% of time spent in open arms” value ([2]; 4 mg/kg oral, 60 min) was 15.69 ± 2.09%. The “% of entries into open arms” value ([2]; 8 mg/kg oral, 20 min) was 28.90 ± 2.23 %, the “% of time spent in open arms” value ([2]; 8 mg/kg oral, 20 min) was 25.62 ± 1.73 % and the “% of entries into open arms” value ([2]; 8 mg/kg oral, 60 min) was 18.67 ± 2.24%. The “% of time spent in open arms” value ([2]; 8 mg/kg oral, 60 min) was 16.76 ± 2.19%, the “time spent in open arms and entries made into open arms vs control” value ([2]; 4.0 and 8.0 mg/kg, twenty minutes after dosage) was “significant increase” and the “fold difference in binding affinity” value ([9]; Compound 1 vs Compound 6 (K1)) was 260 fold. It also gave an IC50 ([9]; read-out: Inhibition of 3H-Flunitrazepam IC50, 1 nM [3H]-flunitrazepam, rat whole brain synaptosomal membrane) of 1.5 nM, a Ki [10] of 1.1 nM and a GABA ratio ([4]; IC50 without GABA / IC50 with 10 μM GABA, 1 nM [3H]-Ro15-1788) of 1.20. The Ki [6] was 1.1 nM and the “ability to grasp the wire” value ([7]; K36 dosage regimen 1.0-8.0 mg/kg) was “remained unchanged”.
